Results reported in ChEMBL document CHEMBL3885881, “DrugMatrix”.

Species on record: Rattus norvegicus
Test: DrugMatrix - Regimen: Daily Repeat
Type: toxicity, organism-based, Sprague-Dawley
Parameters: regimen Daily Repeat, gender Male, age 6-8 weeks
Conditions: in vivo, po, 0 mg/kg, route oral GAVAGE, dose level Control, vehicle .5 % CMC; for ABSOLUTE BASOPHIL / ABSOLUTE EOSINOPHIL / ABSOLUTE LYMPHOCYTE / ABSOLUTE MONOCYTE / ABSOLUTE SEGMENTED NEUTROPHIL / BASOPHIL / EOSINOPHIL / ERYTHROCYTE COUNT / HEMATOCRIT / HEMOGLOBIN / LEUKOCYTE COUNT / LYMPHOCYTE / MEAN CORPUSCULAR HEMOGLOBIN / MEAN CORPUSCULAR HEMOGLOBIN CONCENTRATION / MEAN CORPUSCULAR VOLUME / MONOCYTE / NEUTROPHIL / NUCLEATED RED BLOOD CELLS / PLATELET COUNT: tissue Blood; for ALANINE AMINOTRANSFERASE / ALBUMIN / ALKALINE PHOSPHATASE / ASPARTATE AMINOTRANSFERASE / BLOOD UREA NITROGEN / CARBON DIOXIDE / CHLORIDE / CHOLESTEROL / CREATININE / GLUCOSE / LACTATE DEHYDROGENASE / LIPASE / PHOSPHORUS / POTASSIUM / SODIUM / TOTAL BILIRUBIN / TOTAL PROTEIN / URIC ACID: tissue Plasma

ClC(Cl)Br [BROMODICHLOROMETHANE]
ABSOLUTE BASOPHIL (72 h, time 3 day): 0 CELLS/uL | ABSOLUTE EOSINOPHIL (72 h, time 3 day): 279.83 CELLS/uL | ABSOLUTE LYMPHOCYTE (72 h, time 3 day): 13152.5 CELLS/uL | ABSOLUTE MONOCYTE (72 h, time 3 day): 1013.83 CELLS/uL | ABSOLUTE SEGMENTED NEUTROPHIL (72 h, time 3 day): 2420.5 CELLS/uL | BASOPHIL (72 h, time 3 day): 0% | EOSINOPHIL (72 h, time 3 day): 1.67% | ERYTHROCYTE COUNT (72 h, time 3 day): 5.26 x10E6/uL | HEMATOCRIT (72 h, time 3 day): 32.22% | HEMOGLOBIN (72 h, time 3 day): 12.02 G/DL | LEUKOCYTE COUNT (72 h, time 3 day): 16.87 x10E3/uL | LYMPHOCYTE (72 h, time 3 day): 77.83% | MEAN CORPUSCULAR HEMOGLOBIN (72 h, time 3 day): 22.93 pg | MEAN CORPUSCULAR HEMOGLOBIN CONCENTRATION (72 h, time 3 day): 37.32 G/DL | MEAN CORPUSCULAR VOLUME (72 h, time 3 day): 61.4 fL | MONOCYTE (72 h, time 3 day): 6% | NEUTROPHIL (72 h, time 3 day): 14.5% | NUCLEATED RED BLOOD CELLS (72 h, time 3 day): 0 /100WBC | PLATELET COUNT (72 h, time 3 day): 1122.17 x10E3/uL | ALANINE AMINOTRANSFERASE (72 h, time 3 day): 55.67 u/L | ALBUMIN (72 h, time 3 day): 4.35 G/DL | ALKALINE PHOSPHATASE (72 h, time 3 day): 362.67 u/L | ASPARTATE AMINOTRANSFERASE (72 h, time 3 day): 96 u/L | BLOOD UREA NITROGEN (72 h, time 3 day): 18 mg/dL | CARBON DIOXIDE (72 h, time 3 day): 27.5 mmol/L | CHLORIDE (72 h, time 3 day): 100.17 MEQ/L | CHOLESTEROL (72 h, time 3 day): 74.5 mg/dL | CREATININE (72 h, time 3 day): 0.17 mg/dL | GLUCOSE (72 h, time 3 day): 141.67 mg/dL | LACTATE DEHYDROGENASE (72 h, time 3 day): 682.5 u/L | LIPASE (72 h, time 3 day): 10 u/L | PHOSPHORUS (72 h, time 3 day): 11.5 mg/dL | POTASSIUM (72 h, time 3 day): 6.41 MEQ/L | SODIUM (72 h, time 3 day): 141.2 MEQ/L | TOTAL BILIRUBIN (72 h, time 3 day): 0.18 mg/dL | TOTAL PROTEIN (72 h, time 3 day): 5.88 G/DL | URIC ACID (72 h, time 3 day): 1.4 mg/dL | ABSOLUTE BASOPHIL (120 h, time 5 day): 0 CELLS/uL | ABSOLUTE EOSINOPHIL (120 h, time 5 day): 18.5 CELLS/uL | ABSOLUTE LYMPHOCYTE (120 h, time 5 day): 8146.83 CELLS/uL | ABSOLUTE MONOCYTE (120 h, time 5 day): 204.83 CELLS/uL | ABSOLUTE SEGMENTED NEUTROPHIL (120 h, time 5 day): 1329.83 CELLS/uL | BASOPHIL (120 h, time 5 day): 0% | EOSINOPHIL (120 h, time 5 day): 0.17% | ERYTHROCYTE COUNT (120 h, time 5 day): 5.37 x10E6/uL | HEMATOCRIT (120 h, time 5 day): 33.17% | HEMOGLOBIN (120 h, time 5 day): 12.07 G/DL | LEUKOCYTE COUNT (120 h, time 5 day): 9.7 x10E3/uL | LYMPHOCYTE (120 h, time 5 day): 85.33% | MEAN CORPUSCULAR HEMOGLOBIN (120 h, time 5 day): 22.52 pg | MEAN CORPUSCULAR HEMOGLOBIN CONCENTRATION (120 h, time 5 day): 36.42 G/DL | MEAN CORPUSCULAR VOLUME (120 h, time 5 day): 61.78 fL | MONOCYTE (120 h, time 5 day): 1.83% | NEUTROPHIL (120 h, time 5 day): 12.67% | NUCLEATED RED BLOOD CELLS (120 h, time 5 day): 0 /100WBC | PLATELET COUNT (120 h, time 5 day): 907.5 x10E3/uL | ALANINE AMINOTRANSFERASE (120 h, time 5 day): 58.5 u/L | ALBUMIN (120 h, time 5 day): 4.4 G/DL | ALKALINE PHOSPHATASE (120 h, time 5 day): 377.67 u/L | ASPARTATE AMINOTRANSFERASE (120 h, time 5 day): 140.33 u/L | BLOOD UREA NITROGEN (120 h, time 5 day): 15.33 mg/dL | CARBON DIOXIDE (120 h, time 5 day): 32.17 mmol/L | CHLORIDE (120 h, time 5 day): 100 MEQ/L | CHOLESTEROL (120 h, time 5 day): 71.83 mg/dL | CREATININE (120 h, time 5 day): 0.18 mg/dL | GLUCOSE (120 h, time 5 day): 185 mg/dL | LACTATE DEHYDROGENASE (120 h, time 5 day): 241.5 u/L | LIPASE (120 h, time 5 day): 9.5 u/L | PHOSPHORUS (120 h, time 5 day): 13.02 mg/dL | POTASSIUM (120 h, time 5 day): 6.45 MEQ/L | SODIUM (120 h, time 5 day): 143.45 MEQ/L | TOTAL BILIRUBIN (120 h, time 5 day): 0.22 mg/dL | TOTAL PROTEIN (120 h, time 5 day): 6.1 G/DL | URIC ACID (120 h, time 5 day): 1 mg/dL | ABSOLUTE BASOPHIL ([…], time 14 day): 0 CELLS/uL | ABSOLUTE EOSINOPHIL ([…], time 14 day): 117.17 CELLS/uL | ABSOLUTE LYMPHOCYTE ([…], time 14 day): 13562 CELLS/uL | ABSOLUTE MONOCYTE ([…], time 14 day): 534.83 CELLS/uL | ABSOLUTE SEGMENTED NEUTROPHIL ([…], time 14 day): 2486 CELLS/uL | BASOPHIL ([…], time 14 day): 0% | EOSINOPHIL ([…], time 14 day): 0.83% | ERYTHROCYTE COUNT ([…], time 14 day): 6.14 x10E6/uL | HEMATOCRIT ([…], time 14 day): 36.87% | HEMOGLOBIN ([…], time 14 day): 13.87 G/DL | LEUKOCYTE COUNT ([…], time 14 day): 16.7 x10E3/uL | LYMPHOCYTE ([…], time 14 day): 81% | MEAN CORPUSCULAR HEMOGLOBIN ([…], time 14 day): 22.63 pg | MEAN CORPUSCULAR HEMOGLOBIN CONCENTRATION ([…], time 14 day): 37.62 G/DL | MEAN CORPUSCULAR VOLUME ([…], time 14 day): 60.15 fL | MONOCYTE ([…], time 14 day): 3.17% | NEUTROPHIL ([…], time 14 day): 15% | NUCLEATED RED BLOOD CELLS ([…], time 14 day): 0 /100WBC | PLATELET COUNT ([…], time 14 day): 974.83 x10E3/uL | ALANINE AMINOTRANSFERASE ([…], time 14 day): 52.33 u/L | ALBUMIN ([…], time 14 day): 4.48 G/DL | ALKALINE PHOSPHATASE ([…], time 14 day): 346.17 u/L | ASPARTATE AMINOTRANSFERASE ([…], time 14 day): 81 u/L | BLOOD UREA NITROGEN ([…], time 14 day): 15.67 mg/dL | CARBON DIOXIDE ([…], time 14 day): 34.33 mmol/L | CHLORIDE ([…], time 14 day): 100.17 MEQ/L | CHOLESTEROL ([…], time 14 day): 70.83 mg/dL | CREATININE ([…], time 14 day): 0.22 mg/dL | GLUCOSE ([…], time 14 day): 141.17 mg/dL | LACTATE DEHYDROGENASE ([…], time 14 day): 121.33 u/L | LIPASE ([…], time 14 day): 8.33 u/L | PHOSPHORUS ([…], time 14 day): 9.97 mg/dL | POTASSIUM ([…], time 14 day): 6.4 MEQ/L | SODIUM ([…], time 14 day): 143.72 MEQ/L | TOTAL BILIRUBIN ([…], time 14 day): 0.22 mg/dL | TOTAL PROTEIN ([…], time 14 day): 6.45 G/DL | URIC ACID ([…], time 14 day): 1.25 mg/dL
